Results from patent publication US20050113450A1, “Antibacterial agents” (priority 2002, published 2005).
In brackets after ≈: the same amount, converted by molar mass.

system: SA 9218; experiment: MIC by standard agar dilution method; format: cell-based; details: Mueller Hinton agar, 10^4 to 10^5 cells per spot, incubated overnight at 35° C., lowest concentration that inhibits visible growth
Method in brief: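 MIC read after overnight 35 °C incubation as lowest drug level preventing visible growth. Inoculum of roughly 10^4–10^5 cells per spot (0.5 McFarland, 1:20 in TSB) applied to Mueller Hinton agar containing serial 2-fold compound dilutions.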

| Structure (SMILES) | MIC | SA 9218 MIC |
| --- | --- | --- |
| O=C(Nc1ccc(Br)cc1C(=O)O)c1ccc(Br)c(S(=O)(=O)NC2Cc3ccccc3C2)c1 | 64 µg/mL (≈ 108 µM) |  |
| O=C(O)c1cc(Br)ccc1NC(=O)c1cccc2c1C(=O)c1ccccc1-2 | > 128 µg/mL |  |
| COc1cc(Br)c(C(=O)Nc2ccc(Br)cc2C(=O)O)cc1OC | > 128 µg/mL |  |
| CCCOc1ccc(C(=O)Nc2ccc(Br)cc2C(=O)O)cc1 | 64 µg/mL (≈ 169 µM) |  |
| O=Cc1cccc(C(=O)Nc2ccc(Br)cc2C(=O)O)c1 | > 128 µg/mL |  |
| CC(=O)Oc1cccc(C(=O)Nc2ccc(Br)cc2C(=O)O)c1 | 128 µg/mL (≈ 338 µM) |  |
| COc1ccc(C(=O)Nc2ccc(Br)cc2C(=O)O)cc1F | 16 µg/mL (≈ 43.5 µM) |  |
| COc1ccc(Br)c(C(=O)Nc2ccc(Br)cc2C(=O)O)c1 | 128 µg/mL (≈ 298 µM) |  |
| O=C(Nc1ccc(Br)cc1C(=O)O)c1ccc2c(c1)S(=O)(=O)c1ccccc1C2=O | 16 µg/mL (≈ 32.9 µM) |  |
| Cc1ccc(F)cc1C(=O)Nc1ccc(Br)cc1C(=O)O | 64 µg/mL (≈ 182 µM) |  |
| COc1ccc([N+](=O)[O-])c(C(=O)Nc2ccc(Br)cc2C(=O)O)c1 | > 128 µg/mL |  |
| O=C(Nc1ccc(Br)cc1C(=O)O)c1cc(C(F)(F)F)ccc1Cl | > 128 µg/mL |  |
| N#Cc1ccc(NC(=O)c2cccc(O)c2)c(C(=O)O)c1 | 32 µg/mL (≈ 113 µM) |  |
| CCN(CC)C(=O)c1c(F)ccc(F)c1C(=O)Nc1ccc(Br)cc1C(=O)O | > 128 µg/mL |  |
| O=C(Nc1ccc(Br)cc1C(=O)O)c1cc(S(=O)(=O)Nc2ccc3c(c2)OCCO3)c(F)cc1Cl | 128 µg/mL (≈ 219 µM) |  |
| O=C(Nc1ccc(Br)cc1C(=O)O)c1ccc(OC(F)F)cc1 | 64 µg/mL (≈ 166 µM) |  |
| O=C(Nc1ccc(Br)cc1C(=O)O)c1cc(S(=O)(=O)Nc2ccc(Cl)cc2)ccc1Br | 4 µg/mL (≈ 6.8 µM) |  |
| O=C(Nc1ccc(-c2ccccc2)cc1C(=O)O)c1ccc(S(=O)(=O)N2CCc3ccccc32)cc1 [L-217792] | 8 µg/mL (≈ 16 µM) |  |
| CN(c1ccc(Cl)cc1)S(=O)(=O)c1cccc(C(=O)Nc2ccc(C(F)(F)F)cc2C(=O)O)c1 [PHA-500334] | 16 µg/mL (≈ 31.2 µM) |  |
| O=C(Nc1ccc(Br)cc1C(=O)O)c1cccc(CSc2ccccc2)c1 [PHA-501684] | 1 µg/mL (≈ 2.26 µM) |  |
| O=C(Nc1ccc(Br)cc1C(=O)O)c1cccc(OCc2ccccc2)c1 [PHA-501685] |  | 2 µg/mL |

| Structure (SMILES) | MIC | SA 9218 MIC |
| --- | --- | --- |
| CCSc1cccc(C(=O)Nc2ccc(Br)cc2C(=O)O)c1 [PHA-501748] | 2 µg/mL (≈ 5.26 µM) |  |
| Cl.O=C(Nc1ccc(Br)cc1C(=O)O)c1cccc(SCc2ccncc2)c1 [PHA-502339A] | 8 µg/mL |  |
| O=C(Nc1ccc(Br)cc1C(=O)O)c1cccc(SCc2ccncc2)c1 [PHA-502339] | 2 µg/mL (≈ 4.51 µM) |  |
| COc1cccc(C(=O)Nc2ccc(Br)cc2C(=O)O)c1 [PHA-504639] | 4 µg/mL (≈ 11.4 µM) |  |
| CN(c1ccc(Cl)cc1)S(=O)(=O)c1cc(Br)cc(C(=O)Nc2ccc(Cl)cc2C(=O)O)c1 [PHA-509059] | 0.5 µg/mL (≈ 0.896 µM) |  |
| O=C(Nc1ccc(Br)cc1C(=O)O)c1cccc(Oc2ccccc2)c1 [PHA-513535] | 2 µg/mL (≈ 4.85 µM) |  |
| CS(=O)(=O)c1cccc(C(=O)Nc2ccc(Br)cc2C(=O)O)c1 [PHA-513541] | 64 µg/mL (≈ 161 µM) |  |
| O=C(Nc1ccc(Br)cc1C(=O)O)c1cccc(C(=O)c2ccccc2)c1 [PHA-515448] | 2 µg/mL (≈ 4.71 µM) |  |
| CN(c1ccc(Cl)cc1)S(=O)(=O)c1cc(C(=O)Nc2ccc(Br)cc2C(=O)O)cc([N+](=O)[O-])c1 [PHA-515583] | 8 µg/mL (≈ 14.1 µM) |  |
| O=C(Nc1ccc(Br)cc1C(=O)O)c1cc(Br)cc(S(=O)(=O)N2CCc3cc(Br)ccc32)c1 [PHA-515585] | 1 µg/mL (≈ 1.52 µM) |  |
| CN(c1ccccn1)S(=O)(=O)c1ccc(C(=O)Nc2ccc(Br)cc2C(=O)O)cc1 [PHA-516112] | 8 µg/mL (≈ 16.3 µM) |  |
| CN(c1ccccc1N)S(=O)(=O)c1ccc(C(=O)Nc2ccc(Br)cc2C(=O)O)cc1 [PHA-516113] | 2 µg/mL (≈ 3.97 µM) |  |
| O=C(Nc1ccc(Br)cc1C(=O)O)c1cccc(S(=O)(=O)n2ccc3ccccc32)c1 [PHA-516116] | 0.5 µg/mL (≈ 1 µM) |  |
| O=C(Nc1ccc(Cl)cc1C(=O)O)c1cccc(C(=O)c2ccccc2)c1 [PHA-518226] |  | 2 µg/mL |
| O=C(Nc1ccc([N+](=O)[O-])cc1C(=O)O)c1cccc(C(=O)c2ccccc2)c1 [PHA-519402] | 0.5 µg/mL (≈ 1.28 µM) |  |
| CC(=O)c1ccc(C(=O)Nc2ccc(Br)cc2C(=O)O)cc1 [PHA-520446] | 16 µg/mL (≈ 44.2 µM) |  |
| O=C(Nc1ccc(Br)cc1C(=O)O)c1ccc(C(=O)c2ccccc2)cc1 [PHA-520447] | 1 µg/mL (≈ 2.36 µM) |  |
| O=C(Nc1ccc(Br)cc1C(=O)O)c1cccc(S(=O)(=O)N2CCc3ccccc32)c1 [PHA-520938] | 1 µg/mL (≈ 1.99 µM) |  |
| O=C(Nc1ccc(Br)cc1C(=O)O)c1cccc(C(O)c2ccccc2)c1 (stereo not drawn) [PHA-521534] |  | 1 µg/mL |
| N#Cc1ccc(NC(=O)c2ccccc2)c(C(=O)O)c1 [PHA-521535] |  | >128 µg/mL |
| CC(=O)c1cccc(C(=O)Nc2ccc(Br)cc2C(=O)O)c1 [PHA-522145] | 32 µg/mL (≈ 88.4 µM) |  |

| Structure (SMILES) | MIC | SA 9218 MIC |
| --- | --- | --- |
| CON=C(c1ccccc1)c1cccc(C(=O)Nc2ccc(Br)cc2C(=O)O)c1 [PHA-522146, 5-Bromo-2-({3-[(methoxyimino)(phenyl)methyl]benzoyl}amino)benzoic acid] | 0.5 µg/mL (≈ 1.1 µM) |  |
| N#Cc1ccc(NC(=O)c2cccc(S(=O)(=O)N3CCc4cc(Cl)ccc43)c2)c(C(=O)O)c1 [PHA-524523, 2-({3-[(5-Chloro-2,3-dihydro-1H-indol-1-yl)sulfonyl]benzoyl}amino)-5-cyanobenzoic acid] | 0.125 µg/mL (≈ 0.259 µM) |  |
| N#Cc1ccc(NC(=O)c2cccc(C(=O)c3ccccc3)c2)c(C(=O)O)c1 [PHA-524524] | 1 µg/mL (≈ 2.7 µM) |  |
| O=C(Nc1ccc(Br)cc1C(=O)O)c1cccc(C(=NO)c2ccccc2)c1 [PHA-524545] |  | 0.25 µg/mL |
| O=C(Nc1ccc(Br)cc1C(=O)O)c1cccc(C#Cc2ccccc2)c1 [PHA-526578] | 2 µg/mL (≈ 4.76 µM) |  |
| O=C(Nc1ccc(Br)cc1C(=O)O)c1cccc(Sc2ccccc2)c1 [PHA-526580] | 1 µg/mL (≈ 2.33 µM) |  |
| N#Cc1ccc(NC(=O)c2ccccc2)c(C(=O)O)c1 [PHA-530685] |  | 32 µg/mL |
| N#Cc1cc(C(=O)Nc2ccc(Br)cc2C(=O)O)cc(S(=O)(=O)N2CCc3ccccc32)c1 [PHA-530687] | 8 µg/mL (≈ 15.2 µM) |  |
| O=C(Nc1ccc(Br)cc1C(=O)O)c1cccc(CCc2ccccc2)c1 [PHA-530989] | 4 µg/mL (≈ 9.43 µM) |  |
| N#Cc1ccc(NC(=O)c2cccc(C(=NO)c3ccccc3)c2)c(C(=O)O)c1 [PHA-535548] | 0.25 µg/mL (≈ 0.649 µM) |  |
| CON=C(c1ccccc1)c1cccc(C(=O)Nc2ccc(C#N)cc2C(=O)O)c1 [PHA-535549] | 0.25 µg/mL (≈ 0.626 µM) |  |
| N#Cc1ccc(NC(=O)c2cccc(Oc3ccccc3)c2)c(C(=O)O)c1 [PHA-535553] | 1 µg/mL (≈ 2.79 µM) |  |
| COc1ccc2c(ccn2S(=O)(=O)c2cccc(C(=O)Nc3ccc(C#N)cc3C(=O)O)c2)c1 [PHA-543139] | 0.125 µg/mL (≈ 0.263 µM) |  |
| N#Cc1ccc(NC(=O)c2cccc(S(=O)(=O)N3CCCC3)c2)c(C(=O)O)c1 [PHA-543140] | 1 µg/mL (≈ 2.5 µM) |  |
| N#Cc1ccc(NC(=O)c2cccc(S(=O)(=O)n3ccc4ccccc43)c2)c(C(=O)O)c1 [PHA-543141] | 0.125 µg/mL (≈ 0.281 µM) |  |
| N#Cc1ccc(NC(=O)c2cccc(S(=O)(=O)n3ccc4cc(Cl)ccc43)c2)c(C(=O)O)c1 [PHA-543681] | 0.125 µg/mL (≈ 0.26 µM) |  |
| N#Cc1ccc(NC(=O)c2cccc(SC3CCCC3)c2)c(C(=O)O)c1 [PHA-546926] | 0.5 µg/mL (≈ 1.36 µM) |  |
| CC(Sc1cccc(C(=O)Nc2ccc(C#N)cc2C(=O)O)c1)c1ccccc1 (stereo not drawn) [PHA-547267] | 0.125 µg/mL (≈ 0.311 µM) |  |
| Cc1ccc(NC(=O)c2cccc(S(=O)(=O)N3CCc4cc(Cl)ccc43)c2)c(C(=O)O)c1 [PHA-552831] | 1 µg/mL (≈ 2.12 µM) |  |
| CC1(C)CN(S(=O)(=O)c2cccc(C(=O)Nc3ccc(C#N)cc3C(=O)O)c2)c2ccccc21 [PHA-555027] | 1 µg/mL (≈ 2.1 µM) |  |
| Cc1cc(C(=O)Nc2ccc(C#N)cc2C(=O)O)cc(S(=O)(=O)N2CCc3ccccc32)c1 [PHA-556214] | 1 µg/mL (≈ 2.17 µM) |  |

| Structure (SMILES) | MIC | SA 9218 MIC |
| --- | --- | --- |
| O=C(Nc1ccc(-c2cccs2)cc1C(=O)O)c1cccc(S(=O)(=O)N2CCc3cc(Cl)ccc32)c1 [PHA-556657] | 2 µg/mL (≈ 3.71 µM) |  |
| Cn1cccc1-c1ccc(NC(=O)c2cccc(S(=O)(=O)N3CCc4cc(Cl)ccc43)c2)c(C(=O)O)c1 [PHA-556658] | 8 µg/mL (≈ 14.9 µM) |  |
| O=C(Nc1ccc(-c2cnccn2)cc1C(=O)O)c1cccc(S(=O)(=O)N2CCc3cc(Cl)ccc32)c1 [PHA-556661] | 8 µg/mL (≈ 15 µM) |  |
| O=C(Nc1ccc(-c2ccco2)cc1C(=O)O)c1cccc(S(=O)(=O)N2CCc3cc(Cl)ccc32)c1 [PHA-556663] | 8 µg/mL (≈ 15.3 µM) |  |
| O=C(Nc1ccc(-c2ccccc2)cc1C(=O)O)c1cccc(S(=O)(=O)N2CCc3cc(Cl)ccc32)c1 [PHA-557035] | 4 µg/mL (≈ 7.5 µM) |  |
| N#Cc1ccc(NC(=O)c2ccc(Oc3ccccc3)cc2)c(C(=O)O)c1 [PHA-561055] | 1 µg/mL (≈ 2.79 µM) |  |
| N#Cc1ccc(NC(=O)c2cccc(Oc3cccc(F)c3)c2)c(C(=O)O)c1 [PHA-562731] | 1 µg/mL (≈ 2.66 µM) |  |
| Cc1ccccc1Oc1cccc(C(=O)Nc2ccc(C#N)cc2C(=O)O)c1 [PHA-562733] | 0.25 µg/mL (≈ 0.671 µM) |  |
| N#Cc1ccc(NC(=O)c2ccc3c(c2)S(=O)(=O)N(c2ccc(Cl)cc2)CC3)c(C(=O)O)c1 [PHA-562745] | 0.25 µg/mL (≈ 0.519 µM) |  |
| C[C@H](c1ccccc1)N(C)S(=O)(=O)c1cccc(C(=O)Nc2ccc(C#N)cc2C(=O)O)c1 [PHA-562862] | 4 µg/mL (≈ 8.63 µM) |  |
| C[C@@H](c1ccccc1)N(C)S(=O)(=O)c1cccc(C(=O)Nc2ccc(C#N)cc2C(=O)O)c1 [PHA-562863] | 2 µg/mL (≈ 4.31 µM) |  |
| O=C(Nc1ccc(-c2ccc(Cl)cc2)cc1C(=O)O)c1cccc(S(=O)(=O)N2CCc3cc(Cl)ccc32)c1 [PHA-563274] | 2 µg/mL (≈ 3.52 µM) |  |
| O=C(Nc1ccc(-c2cccc([N+](=O)[O-])c2)cc1C(=O)O)c1cccc(S(=O)(=O)N2CCc3cc(Cl)ccc32)c1 [PHA-563275] | 2 µg/mL (≈ 3.46 µM) |  |
| N#Cc1ccc(-c2ccc(NC(=O)c3cccc(S(=O)(=O)N4CCc5cc(Cl)ccc54)c3)c(C(=O)O)c2)cc1 [PHA-563276] | 2 µg/mL (≈ 3.58 µM) |  |
| Cc1csc(-c2ccc(NC(=O)c3cccc(S(=O)(=O)N4CCc5cc(Cl)ccc54)c3)c(C(=O)O)c2)c1 [PHA-563277] | 2 µg/mL (≈ 3.62 µM) |  |
| O=C(Nc1ccc(-c2ccc(F)cc2)cc1C(=O)O)c1cccc(S(=O)(=O)N2CCc3cc(Cl)ccc32)c1 [PHA-563278] | 2 µg/mL (≈ 3.63 µM) |  |
| O=C(Nc1ccc(-c2ccccc2C(F)(F)F)cc1C(=O)O)c1cccc(S(=O)(=O)N2CCc3cc(Cl)ccc32)c1 [PHA-563279] | 0.5 µg/mL (≈ 0.832 µM) |  |
| O=C(Nc1ccc(-c2cc(C(F)(F)F)cc(C(F)(F)F)c2)cc1C(=O)O)c1cccc(S(=O)(=O)N2CCc3cc(Cl)ccc32)c1 [PHA-563280] | 1 µg/mL (≈ 1.49 µM) |  |
